In ChEMBL document CHEMBL1159252, “Flavonoid inhibitors of trypsin and leucine aminopeptidase: a proposed mathematical model for IC50 estimation” (J Nat Prod, 1995):
pIC50: −log10 of the molar value.

Columns and labels:
Cytosol aminopeptidase = target: T1, Cytosol aminopeptidase (Sus scrofa, UniProt P28839); test: Inhibition of pig kidney cytosolic Leucyl aminopeptidase
T1 sequence (P28839 whole entry): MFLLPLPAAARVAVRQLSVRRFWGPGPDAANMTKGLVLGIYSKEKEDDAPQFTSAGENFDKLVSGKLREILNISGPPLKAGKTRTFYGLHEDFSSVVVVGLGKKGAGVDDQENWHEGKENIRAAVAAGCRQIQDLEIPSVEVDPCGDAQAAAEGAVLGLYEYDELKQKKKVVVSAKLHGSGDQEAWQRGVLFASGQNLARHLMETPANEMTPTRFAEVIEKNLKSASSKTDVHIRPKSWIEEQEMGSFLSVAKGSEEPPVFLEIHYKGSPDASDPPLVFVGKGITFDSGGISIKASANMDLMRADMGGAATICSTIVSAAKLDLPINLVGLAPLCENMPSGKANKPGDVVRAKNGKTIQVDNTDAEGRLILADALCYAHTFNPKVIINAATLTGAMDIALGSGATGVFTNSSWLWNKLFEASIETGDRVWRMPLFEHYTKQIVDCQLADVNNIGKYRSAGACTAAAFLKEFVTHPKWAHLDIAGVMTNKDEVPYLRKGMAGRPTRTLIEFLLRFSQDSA

[1] = Inhibition of bovine pancreas trypsin; set-up: species or system Bos taurus

Compound	pIC50 (Cytosol aminopeptidase)	pIC50 [1]
O=c1cc(-c2ccc(O)c(O)c2)oc2ccccc12	4.45	
O=c1cc(-c2ccc(O)cc2)oc2cc(O)cc(O)c12 [APIGENIN]		3.85
O=c1c(O)c(-c2ccc(O)cc2)oc2cc(O)cc(O)c12 [KAEMPFEROL]		3.98
O=c1cc(-c2ccc(O)c(O)c2)oc2cc(O)cc(O)c12 [LUTEOLIN]	4.30	4.45
O=c1c(O)c(-c2ccc(O)cc2O)oc2cc(O)cc(O)c12 [MORIN]		3.96
O=c1c(O)c(-c2cc(O)c(O)c(O)c2)oc2cc(O)cc(O)c12 [MYRICETIN]		4.99
O=c1c(O)c(-c2ccc(O)c(O)c2)oc2cc(O)cc(O)c12 [QUERCETIN]	4.46	5.15
COc1cc(C2Oc3c(O)cc([C@H]4Oc5cc(O)cc(O)c5C(=O)[C@@H]4O)cc3C2CO)ccc1O (stereo not given in full) [SILICRISTIN]		3.84
